Test results taken from the OPERA property sets (Mansouri et al. 2018).

details: not given

| SMILES | melting point [°C] | log10 Koa | boiling point [°C] | ready biodegradability | log10 vapour pressure (mmHg) | log10 biodegradation half-life (days) | log10 Koc (L/kg) | log10 Henry constant (atm·m³/mol) |
| --- | --- | --- | --- | --- | --- | --- | --- | --- |
| Cc1cc(C(C)(C)c2ccc(O)c(C)c2)ccc1O | 139 | – | – | – | – | – | – | – |
| Clc1cc2cccc(Cl)c2c(Cl)c1Cl | – | 8.65 | – | – | – | – | – | – |
| COc1ccc2cc1Oc1ccc(cc1)C[C@H]1c3cc(c(OC)cc3CCN1C)Oc1c(OC)c(OC)cc3c1[C@H](C2)N(C)CC3 | 218 | – | – | – | – | – | – | – |
| O[C@H]1CC[C@H](O)CC1 | 143 | – | – | – | – | – | – | – |
| CC1=C2[C@H]3OC(=O)[C@@H](C)[C@@H]3CC[C@@]2(C)C=CC1=O | 175 | – | – | – | – | – | – | – |
| O=C1CCC(=O)N1Br | 174 | – | – | – | – | – | – | – |
| CCc1sccc1C | – | – | 161 | – | – | – | – | – |
| CCCCCCCC/C=C\CCCCCCCC(=O)OCC(COC(=O)CCCCCCC/C=C\CCCCCCCC)OC(=O)CCCCCCC/C=C\CCCCCCCC | – | – | – | readily biodegradable | – | – | – | – |
| CCOC(=O)C(C(C)=O)C(=O)OCC | – | – | 232 | – | – | – | – | – |
| CCCOC(N)=O | 60 | – | 196 | – | -1.26 | – | – | – |
| CCCCc1cccs1 | – | – | 182 | – | – | – | – | – |
| O=S(=O)(O)c1ccc2ccccc2c1 | 91 | – | – | – | – | – | – | – |
| CCCCCCCCCCCCCCCCCCC | 32.1 | – | 330 | readily biodegradable | -4.31 | 1.26 | – | – |
| COc1cc2c(cc1OC)C(=O)NCC2 | 175 | – | – | – | – | – | – | – |
| Clc1ccc(-c2c(Cl)cc(Cl)cc2Cl)cc1 | 65 | – | – | – | – | – | – | – |
| Clc1cc2oc3c(Cl)c(Cl)ccc3c2cc1Cl | 195 | – | – | – | -7.68 | – | – | – |
| CN(C(=O)N(C)c1ccccc1)c1ccccc1 | 122 | – | 350 | – | – | – | – | – |
| O=c1cc(O)c2ccccc2o1 | 214 | – | – | – | – | – | – | – |
| Nc1cccc(I)c1 | 33 | – | – | – | – | – | – | – |
| N#Cc1ccc(-c2ccc(C#N)cc2)cc1 | 238 | – | – | – | – | – | – | – |
| C#CC=O | – | – | 60 | – | – | – | – | – |
| COC(C)(C)CCOC(C)=O | – | – | – | readily biodegradable | – | – | – | – |

| SMILES | melting point [°C] | log10 Koa | boiling point [°C] | ready biodegradability | log10 vapour pressure (mmHg) | log10 biodegradation half-life (days) | log10 Koc (L/kg) | log10 Henry constant (atm·m³/mol) |
| --- | --- | --- | --- | --- | --- | --- | --- | --- |
| COC(=O)C(Cl)(Cl)Cl | -17.5 | – | 154 | – | – | – | – | – |
| CCC(C(C)=O)C(=O)OC (centres undefined) | – | – | 182 | – | – | – | – | – |
| COP(=S)(OC)SCn1nnc2ccccc2c1=O | 73 | – | – | readily biodegradable | -5.8 | – | 2.28 | – |
| C/C=C/c1cc2c(c(=O)o1)C(=O)[C@@H](O)[C@H](C)O2 | 222 | – | – | – | – | – | – | – |
| N#CCCc1ccccc1 | -1 | – | 261 | – | – | – | – | – |
| CN1CCC(CCCC2CCN(C)CC2)CC1 | 13.7 | – | – | – | – | – | – | – |
| Nc1cnc2ccccc2c1 | 91.5 | – | – | – | -4.54 | – | – | – |
| CCOc1ccc(NC(C)=O)cc1 | 138 | 9.59 | 244 | not readily biodegradable | -6.16 | – | – | – |
| Cc1cc(N)ccc1Cl | 83.5 | – | 241 | not readily biodegradable | – | – | – | – |
| ClC=C(Cl)Cl | -84.7 | 2.99 | 87.2 | not readily biodegradable | 1.84 | – | 2 | -2.01 |
| CNC(=O)ON=CC(C)(C)SC | 99 | – | – | – | -4.46 | – | 1.5 | – |
| O=C(c1ccccc1)C(O)c1ccccc1 (centres undefined) | – | – | – | readily biodegradable | – | – | – | – |
| COc1cccc(C(=O)O)c1O | 151 | – | – | – | – | – | – | – |
| CCN(CC)C(N)=O | 75 | – | – | – | – | – | – | – |
| C=C(C)CC1(CC)C(=O)NC(=S)NC1=O | 160 | – | – | – | – | – | – | – |
| CCCCCCCCCCCC(=O)NCCC[N+](C)(C)CC(=O)[O-] | – | – | – | readily biodegradable | – | – | – | – |
| C[C@]12CC[C@H]3[C@@H](CCC4=CC(=O)CC[C@@H]43)[C@@H]1CC[C@@H]2O | 118 | – | – | – | – | – | – | – |
| O=C1c2ccccc2C(=O)N1CCBr | 82.5 | – | – | – | – | – | – | – |
| CCCCCCC | -90.6 | 2.95 | 98.5 | readily biodegradable | 1.66 | 0.845 | – | – |
| CCC(Cc1c(I)cc(I)c(N)c1I)C(=O)O (centres undefined) | 155 | – | – | – | – | – | – | – |
| Nc1ncnc(Nc2ccc(Cl)cc2)n1 | 234 | – | – | – | – | – | – | – |
| CC(=O)O[C@]1(C(C)=O)CC[C@H]2[C@@H]3CCC4=CC(=O)CC[C@]4(C)[C@@]3(F)[C@@H](O)C[C@@]21C | 268 | – | – | – | – | – | – | – |

| SMILES | melting point [°C] | log10 Koa | boiling point [°C] | ready biodegradability | log10 vapour pressure (mmHg) | log10 biodegradation half-life (days) | log10 Koc (L/kg) | log10 Henry constant (atm·m³/mol) |
| --- | --- | --- | --- | --- | --- | --- | --- | --- |
| CCF | -143 | – | -37.6 | – | 3.84 | – | – | – |
| CCOP(=S)(OCC)Oc1cc(C)nc(N(CC)CC)n1 | 15 | – | – | – | -3.54 | – | 2.48 | – |
| N[C@@H](CCC(=O)O)C(=O)O | – | – | – | readily biodegradable | -7.77 | – | – | – |
| CC(=O)c1ccc(C(F)(F)F)cc1 | 31 | – | – | – | – | – | – | – |
| CC(C)CC(=O)Cl | – | – | 114 | – | – | – | – | – |
| CCCCCCCCCC(=O)OC | -18 | – | 224 | – | -1.43 | – | – | – |
| Cc1cc(O)cc(O)c1 | 108 | – | 290 | not readily biodegradable | – | – | – | – |
| COc1cc(Cl)cc(Cl)c1 | 41 | – | – | – | – | – | – | – |
| Clc1c(Cl)c(Cl)c2nccnc2c1Cl | 190 | – | – | – | – | – | – | – |
| CCN1CCOCC1 | -64 | – | 138 | not readily biodegradable | 0.702 | – | – | – |
| O=NN1CCOCC1 | 29 | – | 225 | – | – | – | – | – |
| CC(=O)c1ccc(O)cc1 | 110 | – | – | readily biodegradable | – | – | – | – |
| FC(I)I | -34.5 | – | 100 | – | – | – | – | – |
| FC(F)(F)C(Cl)CCl (centres undefined) | – | – | 76.9 | – | – | – | – | – |
| CCC1CCC1 | -143 | – | 70.8 | – | – | – | – | – |
| COc1ccccn1 | – | – | 142 | – | – | – | – | – |
| OCCOc1ccc(Cl)cc1Cl | – | – | – | – | -3.7 | – | – | – |
| CC1(C)CCCC(O)C1 (centres undefined) | 11.5 | – | 185 | – | – | – | – | – |
| Nc1ccc2c(c1)Cc1ccccc1-2 | 129 | – | – | – | – | – | – | – |
| CO[C@H]1C=C[C@H](OC)O1 | – | – | 161 | – | – | – | – | – |
| CCCCCCNC(=O)n1cc(F)c(=O)[nH]c1=O | 110 | – | – | – | – | – | – | – |
| COC(=O)CCCCl | – | – | 175 | – | – | – | – | – |

| SMILES | melting point [°C] | log10 Koa | boiling point [°C] | ready biodegradability | log10 vapour pressure (mmHg) | log10 biodegradation half-life (days) | log10 Koc (L/kg) | log10 Henry constant (atm·m³/mol) |
| --- | --- | --- | --- | --- | --- | --- | --- | --- |
| C=Cc1cccc(Cl)c1 | – | – | – | not readily biodegradable | -0.0083 | – | – | – |
| FC(F)(F)C(Cl)(Cl)C(F)(F)Cl | -4.3 | – | 72 | – | – | – | – | – |
| CNC(C)CCC=C(C)C (centres undefined) | – | – | 177 | – | – | – | – | – |
| C[C@@]12C(=O)OC(=O)[C@]1(C)C1CCC2O1 | 218 | – | – | – | – | – | – | – |
| CC1=CCCCCC1 | – | – | 136 | – | – | – | – | – |
| CCOC1Oc2ccc(OS(C)(=O)=O)cc2C1(C)C (centres undefined) | 71 | – | – | – | -5.31 | – | 2.53 | – |
| C=CCC1(C(C)CC)C(=O)NC(=O)NC1=O (centres undefined) | 109 | – | – | – | – | – | – | – |
| C=CC(=O)OCC(C)C | -61 | – | 132 | – | 0.907 | – | – | – |
| CCCCCN1CCCCC1 | – | – | 198 | – | – | – | – | – |
| CC(=O)[O-].[NH4+] | 114 | – | – | – | – | – | – | – |
| CCCC(C)CC(C)(C)C (centres undefined) | – | – | 148 | – | – | – | – | – |
| CCCCCCOCCCCCC | – | – | 223 | – | -1.34 | – | – | – |
| ClCCOCCCl | -51.9 | – | 178 | not readily biodegradable | 0.19 | – | 1.88 | – |
| COC1=CC=C2[C@H]3Cc4ccc(OC)c5c4[C@@]2(CCN3C)[C@H]1O5 | 193 | – | – | – | – | – | – | – |
| CCC#CCCC | -130 | – | 107 | – | – | – | – | – |
| O=C(O)CCCCCCC(=O)O | 144 | – | 346 | – | -6.54 | – | – | – |
| CCCCc1c(C)nc(NCC)nc1O | 160 | – | – | – | -5.7 | – | – | – |
| Clc1ccc(Cl)c(-c2ccccc2Cl)c1 | – | 7.6 | – | – | -2.98 | – | 4.4 | -3.6 |
| CCN1C(=O)CCC1=O | 26 | – | 236 | – | – | – | – | – |
| O=C(O)C(Cl)CCl (centres undefined) | 50 | – | 210 | – | – | – | – | – |
| CC1(C)COC(=O)C1O (centres undefined) | 92 | – | – | readily biodegradable | – | – | – | – |
| FC(F)(F)C(F)(F)C(Cl)(Cl)Cl | -80 | – | 74 | – | – | – | – | – |

same assay, conditions: fish

| SMILES | log10 BCF | log10 biotransformation half-life (days) |
| --- | --- | --- |
| Clc1cc2oc3c(Cl)c(Cl)ccc3c2cc1Cl | 2.72 | – |
| CCOc1ccc(NC(C)=O)cc1 | 1.48 | -0.55 |
| ClC=C(Cl)Cl | 1.2 | -0.41 |
| ClCCOCCCl | 1 | -0.81 |
| Clc1ccc(Cl)c(-c2ccccc2Cl)c1 | 4.23 | 1.87 |
